Measurements published in patent US20260217656A1, “Compounds Affecting KRAS” (UNIVERSITAT DE BARCELONA, priority 2022, published 2026).

Experiments:
[1] = target: T1, GST-KRAS (1-166), GTP loaded (Homo sapiens, UniProt P01116, G12V); assay: Surface plasmon resonance analysis; type: binding; details: GTP-loaded GST-KRAS (aminoacids 1 to 166) immobilized; read-out: affinity constant (KD)
T1 construct: GST-KRAS (1-166) and GST were covalently immobilized; made in house; host or cells: Escherichia coli BCI21 (so in the source)
Description: Surface Plasmon Resonance Analysis was performed by using BIAcore T200 equipment. GST-KRAS (1-166) and GST were covalently immobilized on two of the channels of CM5 Series S Chip following manufacturers instruction. KRAS was loaded with GTP by injecting 1 mM of GTP 10 μl/min for 30 min in exchange buffer (20 mM Tris-HCl pH 7.5; 50 mM NaCl, 5% glycerol, 0.1% Triton X-100, 1 mM DTT) with 10 mM EDTA at 30° C. and loading was blocked by injecting exchange buffer with 15 mM MgCl2 at 10 μl/min for 5 min. P14B was injected at 12.5 μM, 25 μM, 38.5 μM, 50 μM, 75 μM, 100 μM and 150 μM in running buffer (150 mM NaCl, 50 mM Tris-HCl pH7.5, 2 mM MgCl2, 0.1% Triton and 5% DMSO […] Dissociation was allowed for 10 min in the same buffer. All runs were done by duplicate. Nonspecific binding was subtracted by using two linked channels (GST-KRAS minus GST). Diverse solutions (from 3% to 8%) with DMSO were also prepared to analyse its effect in the RUs, and a solvent correction was performed to reduce the error associated with the injection of the sample. […]
To confirm the direct interaction between KRAS and P14B, surface plasmon resonance analysis was performed. […] Given that P14B is able to bind to oncogenic KRAS (FIG. 4) most likely via the same surface that KRAS uses to interact with CaM, we analyzed the possibility that P14B can displace CaM from oncogenic KRAS. […]

DLD-1-KO cells = assay: MTS cell viability assay, DLD-1-KO; type: cell-based, human; details: at approximately 80 μM
Description: DLD-1 (KRASWT/G13D) (clone V15, #HD PAR-086) colorectal adenocarcinoma cell line and DLD-1 knockout of mutant KRAS allele, DLD-1 KO (KRASWT/−) (clone DWT7, #HD105-002), were obtained from Horizon Discovery Ltd. (Cambridge, UK). hTERT-RPE (KRASWT/WT) immortalized retinal pigment epithelial human cell line was obtained from the […] (ATCC). DLD-1 KO cells stably expressing HA-KRAS G12V were previously generated in our laboratory (Cabot et al., 2021). All cells were grown in DMEM-HAM s F12 (1:1) supplemented with 10% foetal bovine serum (Biological Industries, Israel), penicillin, streptomycin, and nonessential amino acids. Cells were tested once per month for mycoplasma contamination.
10,000 cells in 50 µL of 10% FBS-containing medium, were cultured for 24 hours and then treated with the compounds (50 μL final volume) for 48 h hours in each well of a 96-well plate (100 μL final volume). MTS viability assay (CellTiter 96® Aqueous One Solution Cell Proliferation Assay, Promega G3580) was assessed following the company conditions. The absorbance of each well was measured with a multimode plate reader (Spark, Tecan) at 490 nm. The percentage of cell viability was calculated by dividing the absorbance of each well by the average absorbance of the control wells. […]

[2] = target: T2, GST-KRAS-G12V binding to CaM (Homo sapiens, UniProt P01116, G12V); assay: CaM-sepharose pulldown competition assay; details: increasing concentrations of P14B
T2 construct: recombinant GTP-loaded GST-KRAS-G12V (1-166) with CaM-sepharose beads; made in house; host or cells: Escherichia coli BCI21 (so in the source)
Description: […] of recombinant GST-KRAS (1-166) (GTP loaded) and 12.5 I of CaM-sepharose beads (Cytiva; Merck) (previously washed with pull-down buffer (PDB) containing 50 mM Tris-HCl, pH 7.5, 150 mM NaCl, 0.1% (v/v) Triton X-100) were incubated in the presence of 1 mM CaCl2 or 5 mM EGTA (in a total volume of 100 I with PDB) for 60 minutes at room temperature. The unbound fraction was collected by centrifugation, and the bound fraction was washed four times with PDB with either CaCl2 or EGTA. The entire bound fraction was analysed by WB.
GST-KRAS (1-166) fusion protein was expressed in Escherichia coli BCI21 and then purified and loaded with the specific nucleotide as previously described (Villalonga et al., 2001).
To confirm the direct interaction between KRAS and P14B, surface plasmon resonance analysis was performed. Purified GST-KRAS (aminoacids 1 to 166) was immobilized and then GTP loaded. […] Given that P14B is able to bind to oncogenic KRAS (FIG. 4) most likely via the same surface that KRAS uses to interact with CaM, we analyzed the possibility that P14B can displace CaM from oncogenic KRAS. To this end, we performed an in vitro competence assay that consisted of pulling-down recombinant GTP-loaded GST-KRAS-G12V (1-166) with CaM-sepharose beads followed by incubation with increasing concentrations of P14B.

Kd [1]: 32.8 µM | Ca+2-dependent GST-KRAS-G12V binding to CaM [2]: reduced
SMILES: COc1ccc(C(c2c(C)n[nH]c2O)c2c(C)n[nH]c2O)cc1Oc1ccc([N+](=O)[O-])cc1 [Example P14B]
cell viability (DLD-1-KO cells): not affected
